According to publication PMC8217813, “Bridging Computational Vaccinology and Vaccine Development Through Systematic Identification, Characterization, and Downselection of Conserved and Variable Circumsporozoite Protein CD4 T Cell Epitopes From Diverse Plasmodium falciparum Strains” (Frontiers in Immunology, 2021):
Peptide text beside a SMILES is read from it.

Tests used:
HLA-DRB1*1301 = HLA-DRB1*1301 (Homo sapiens, UniProt P01903+P01911, A100E/A169T/K41T/L162R/M171V/P40S/Q125H/Q178H/Q39Y/Q99D/R42S/S66N/T262R/W38E/Y61H); assay: In vitro class II HLA binding competition assay; conditions: competition with fluorescent-labeled reference peptide, class II HLA monomers, 24-hours, test peptide 100,000 nM to 100 nM, time-resolved fluorescence
How it was run: (§1)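 Test peptides (final 100,000 nM to 100 nM, in DMSO) competed with a fluorescent high-binding reference peptide for limiting soluble class II HLA monomers in aqueous buffer over 24 h. Complexes were captured on anti-HLA-DR plates and read by europium time-resolved fluorescence; IC50 came from percent inhibition across the titration.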

HLA-DRB1*0101 = target: T1, HLA-DRB1*0101 (Homo sapiens, UniProt P01903+P01911, A100R/D57E/F55L/F60I/F76Y/I96L/L162R/M171V/P40L/Q125E/R42F/V115G/Y59C); assay: In vitro class II HLA binding competition assay; conditions: competition with fluorescent-labeled reference peptide, class II HLA monomers, 24-hours, test peptide 100,000 nM to 100 nM, time-resolved fluorescence
T1 construct: purchased
How it was run: as §1

HLA-DRB1*0401 = target: T2, HLA-DRB1*0401 (Homo sapiens, UniProt P01903+P01911, A100K/A169T/F76Y/I96L/K127E/L162R/M171V/N62H/P40V/Q125Y/R42H/S133A/S149N/S66Y/V115G/V209L/W38E); assay: In vitro class II HLA binding competition assay
T2 construct: purchased
How it was run: as §1

HLA-DRB1*1501 = target: T3, HLA-DRB1*1501 (Homo sapiens, UniProt P01903+P01911); assay: In vitro class II HLA binding competition assay
T3 construct: purchased
How it was run: as §1

HLA-DRB1*1101 = target: T4, HLA-DRB1*1101 (Homo sapiens, UniProt P01903+P01911, A100R/A169T/A87E/I96F/K41T/L162R/M171V/P40S/Q125H/Q178H/Q39Y/Q99D/R42S/S66Y/T262R/V115G/W38E); assay: In vitro class II HLA binding competition assay; conditions: competition with fluorescent-labeled reference peptide, class II HLA monomers, 24-hours, test peptide 100,000 nM to 100 nM, time-resolved fluorescence
T4 construct: purchased
How it was run: as §1

HLA-DRB1*0301 = HLA-DRB1*0301 (Homo sapiens, UniProt P01903+P01911, A100K/A102G/A103R/A169T/F55Y/I96L/K41T/L162R/M171V/P40S/Q125H/Q178H/Q39Y/R42S/S66N/T106N/T262R/W38E/Y61H); assay: In vitro class II HLA binding competition assay; conditions: competition with fluorescent-labeled reference peptide, class II HLA monomers, 24-hours, test peptide 100,000 nM to 100 nM, time-resolved fluorescence
How it was run: as §1

HLA-DRB1*0801 = HLA-DRB1*0801 (Homo sapiens, UniProt P01903+P01911, A100R/A103L/A169T/D86S/F76Y/H45Y/I96F/K41T/L162R/M171V/P40S/Q125H/Q178H/Q39Y/Q99D/R218S/R42G/S66Y/V115G/W38E); assay: In vitro class II HLA binding competition assay; conditions: competition with fluorescent-labeled reference peptide, class II HLA monomers, 24-hours, test peptide 100,000 nM to 100 nM, time-resolved fluorescence
How it was run: as §1

HLA-DRB1*0701 = HLA-DRB1*0701 (Homo sapiens, UniProt P01903+P01911, A100R/A102G/A103Q/D57E/D86V/E43K/F76Y/K127E/L162R/M171V/P40G/Q125H/Q99D/R33Q/R42Y/R54Q/S133A/S66F/T210M/V115G/Y107V/Y59L/Y89S); assay: In vitro class II HLA binding competition assay
How it was run: as §1

[1] = tested on: CD4 T cells co-cultured with autologous DCs from PBMCs; assay type: cell-based, human; conditions: positive = Stimulation Index ≥1.5-fold above baseline, 5 µg/mL peptide

For `CC[C@H](C)[C@H](NC(=O)[C@H](Cc1c[nH]cn1)NC(=O)[C@H](CCC(N)=O)NC(=O)[C@H](CC(=O)O)NC(C)=O)C(=O)N[C@@H](CCC(=O)O)C(=O)N[C@@H](CCCCN)C(=O)N[C@@H](Cc1ccc(O)cc1)C(=O)N[C@@H](CC(C)C)C(=O)N[C@@H](CCCCN)C(=O)N[C@H](C(=O)N[C@H](C(=O)N[C@@H](CCC(N)=O)C(=O)N[C@@H](CC(N)=O)C(=O)N[C@@H](CO)C(=O)N[C@@H](CC(C)C)C(=O)N[C@@H](CO)C(=O)N[C@H](C(=O)N[C@@H](CCC(=O)O)C(=O)N[C@@H](Cc1c[nH]c2ccccc12)C(=O)N[C@@H](CO)C(=O)N1CCC[C@H]1C(N)=O)[C@@H](C)O)[C@@H](C)CC)[C@@H](C)CC` [ICS5] (Ac-DQHIEKYLKIIQNSLSTEWSP-NH2), the IC50 (HLA-DRB1*1301) was 19.8 µM, the IC50 (HLA-DRB1*0101) was 0.218 µM and the IC50 (HLA-DRB1*0401) was 0.035 µM. It also gave an IC50 (HLA-DRB1*1501) of 0.03 µM, an IC50 (HLA-DRB1*1101) of 5.55 µM and an IC50 (HLA-DRB1*0301) of 84.7 µM. The IC50 (HLA-DRB1*0801) was 23.1 µM, the IC50 (HLA-DRB1*0701) was 3.68 µM and the “Percentage of donors demonstrating IFN-γ responses, DR1” value ([1]; DR1 donors N=5, ICCS after 14-day co-culture) was 80%. The “Percentage of donors demonstrating IL-2 responses, DR1” value ([1]; DR1 donors N=5, ICCS) was 20%, the “Percentage of donors demonstrating IL-4 responses, DR1” value ([1]; DR1 donors N=5, ICCS) was 0% and the “Percentage of donors demonstrating IL-10 responses, DR1” value ([1]; DR1 donors N=5, ICCS) was 0%. The “Percentage of donors demonstrating TNF-α responses, DR1” value ([1]; DR1 donors N=5, ICCS) was 40%, the “Percentage of donors demonstrating IFN-γ responses, DR3” value ([1]; DR3 donors N=6, ICCS after 14-day co-culture) was 33% and the “Percentage of donors demonstrating IL-2 responses, DR3” value ([1]; DR3 donors N=6, ICCS) was 0%. The “Percentage of donors demonstrating IL-4 responses, DR3” value ([1]; DR3 donors N=6, ICCS) was 33%, the “Percentage of donors demonstrating IL-10 responses, DR3” value ([1]; DR3 donors N=6, ICCS) was 17% and the “Percentage of donors demonstrating TNF-α responses, DR3” value ([1]; DR3 donors N=6, ICCS) was 17%. For the same compound, the “Percentage of donors demonstrating IFN-γ responses, DR4” value ([1]; DR4 donors N=10, ICCS after 14-day co-culture) was 60%, the “Percentage of donors demonstrating IL-2 responses, DR4” value ([1]; DR4 donors N=10, ICCS) was 40% and the “Percentage of donors demonstrating IL-4 responses, DR4” value ([1]; DR4 donors N=10, ICCS) was 0%. The “Percentage of donors demonstrating IL-10 responses, DR4” value ([1]; DR4 donors N=10, ICCS) was 0%, the “Percentage of donors demonstrating TNF-α responses, DR4” value ([1]; DR4 donors N=10, ICCS) was 40% and the “Percentage of donors demonstrating IFN-γ responses, DR7” value ([1]; DR7 donors N=4, ICCS after 14-day co-culture) was 75%. The “Percentage of donors demonstrating IL-2 responses, DR7” value ([1]; DR7 donors N=4, ICCS) was 25%, the “Percentage of donors demonstrating IL-4 responses, DR7” value ([1]; DR7 donors N=4, ICCS) was 25% and the “Percentage of donors demonstrating IL-10 responses, DR7” value ([1]; DR7 donors N=4, ICCS) was 0%. The “Percentage of donors demonstrating TNF-α responses, DR7” value ([1]; DR7 donors N=4, ICCS) was 0%, the “Percentage of donors demonstrating IFN-γ responses, DR8” value ([1]; DR8 donors N=4, ICCS after 14-day co-culture) was 25% and the “Percentage of donors demonstrating IL-2 responses, DR8” value ([1]; DR8 donors N=4, ICCS) was 0%. The “Percentage of donors demonstrating IL-4 responses, DR8” value ([1]; DR8 donors N=4, ICCS) was 0%, the “Percentage of donors demonstrating IL-10 responses, DR8” value ([1]; DR8 donors N=4, ICCS) was 0% and the “Percentage of donors demonstrating TNF-α responses, DR8” value ([1]; DR8 donors N=4, ICCS) was 75%. The “Percentage of donors demonstrating IFN-γ responses, DR9” value ([1]; DR9 donors N=4, ICCS after 14-day co-culture) was 50%, the “Percentage of donors demonstrating IL-2 responses, DR9” value ([1]; DR9 donors N=4, ICCS) was 25% and the “Percentage of donors demonstrating IL-4 responses, DR9” value ([1]; DR9 donors N=4, ICCS) was 0%. For the same compound, the “Percentage of donors demonstrating IL-10 responses, DR9” value ([1]; DR9 donors N=4, ICCS) was 25%, the “Percentage of donors demonstrating TNF-α responses, DR9” value ([1]; DR9 donors N=4, ICCS) was 50% and the “Percentage of donors demonstrating IFN-γ responses, DR11” value ([1]; DR11 donors N=4, ICCS after 14-day co-culture) was 100%. The “Percentage of donors demonstrating IL-2 responses, DR11” value ([1]; DR11 donors N=4, ICCS) was 50%, the “Percentage of donors demonstrating IL-4 responses, DR11” value ([1]; DR11 donors N=4, ICCS) was 0% and the “Percentage of donors demonstrating IL-10 responses, DR11” value ([1]; DR11 donors N=4, ICCS) was 0%. The “Percentage of donors demonstrating TNF-α responses, DR11” value ([1]; DR11 donors N=4, ICCS) was 75%, the “Percentage of donors demonstrating IFN-γ responses, DR13” value ([1]; DR13 donors N=7, ICCS after 14-day co-culture) was 43% and the “Percentage of donors demonstrating IL-2 responses, DR13” value ([1]; DR13 donors N=7, ICCS) was 14%. For the same compound, the “Percentage of donors demonstrating IL-4 responses, DR13” value ([1]; DR13 donors N=7, ICCS) was 14%, the “Percentage of donors demonstrating IL-10 responses, DR13” value ([1]; DR13 donors N=7, ICCS) was 0% and the “Percentage of donors demonstrating TNF-α responses, DR13” value ([1]; DR13 donors N=7, ICCS) was 43%. For the same compound, the “Percentage of donors demonstrating IFN-γ responses, DR15” value ([1]; DR15 donors N=7, ICCS after 14-day co-culture) was 43%, the “Percentage of donors demonstrating IL-2 responses, DR15” value ([1]; DR15 donors N=7, ICCS) was 0% and the “Percentage of donors demonstrating IL-4 responses, DR15” value ([1]; DR15 donors N=7, ICCS) was 0%. The “Percentage of donors demonstrating IL-10 responses, DR15” value ([1]; DR15 donors N=7, ICCS) was 14% and the “Percentage of donors demonstrating TNF-α responses, DR15” value ([1]; DR15 donors N=7, ICCS) was 29%.
